Results as given in patent US20250163387A1, “HUMAN PITUITARY NEUROENDOCRINE TUMOR ORGANOIDS AND METHODS OF MAKING AND USING THE SAME” (ARIZONA BOARD OF REGENTS OF THE UNIVERSITY OF ARIZONA, A …, priority 2022, published 2025).

What was measured:
[1] = tested on: SSTR2; experiment: Differential expression of SSTR2 in iPSC generated pituitary tumor organoids; format: cell-based, human
[2] = tested on: SSTR5; experiment: Differential expression of SSTR5 in iPSC generated pituitary tumor organoids; format: cell-based, human
[3] = tested on: iPSC^USP48MV organoids; experiment: Proliferation by EdU uptake; format: cell-based, human; conditions: drug alone, 500 nM
Method: (§1) Organoids were immunostained using published protocols by our laboratory. Proliferation was measured by using 5-ethynyl-2'-deoxyuridine (EdU) incorporation according to the Manufacturer's protocol (Click-IT EdU Alexa Fluor 555 Imaging Kit, Thermo Fisher Scientific C10338). Costaining was performed by blocking fixed organoids with 2% donkey serum (Jackson Immuno Research, #017-000-121) diluted in 0.01% PBST for 1 hr. at room temperature. Organoids were then incubated overnight at 4° C. with primary antibodies followed by secondary antibodies and Hoechst (Thermo Fisher Scientific H1399, 1:1000 in 0.01% PBST) for 1 hr at room temperature. Human specific primary antibodies used included: rabbit anti-ACTH (Thermo Fisher Scientific 701293, 1:250), rabbit anti-Synaptophysin (Thermo Fisher Scientific PA5-27286, 1:100), […] (Thermo Fisher Scientific PA5-98650, 1:50), rabbit anti-LH (Thermo Fisher Scientific PA5-102674, 1:100), mouse anti-FSH (Thermo Fisher Scientific MIF2709, 1:100), mouse anti-PRL (Thermo Fisher Scientific CF500720, 1:100), Alexa Flour conjugated GH (NB500-364AF647, 1:100) and mouse anti-CAM5.2 (SIGMA […]-95, 1:250). The secondary antibodies used included Alexa Fluor 488 Donkey Anti Rabbit IgG (H+L) (Thermo Fisher Scientific A21206, 1:100) or Alexa Fluor 647 Donkey Anti Mouse IgG (H+L) (Thermo Fisher Scientific A31571, 1:100). Organoids were visualized and images acquired by confocal microscopy using the Nikon CrestV2 Spinning Disk. Fluorescence intensity and percentage of EdU positive cells of total cells, were calculated using Nikon Elements Software (Version 5.21.05).

[4] = tested on: iPSC^ctrl organoids; experiment: Proliferation by EdU uptake; format: cell-based, human; conditions: drug alone, 500 nM
Method: as §1

[5] = tested on: iPSC^USP48MV organoids; experiment: Nuclear irregularity index (NII) morphometric analysis; format: cell-based, human; conditions: 500 nM
Method: (§2) Nuclear Morphometric Analysis (NMA) using treated organoids was performed based on a published protocol that measures cell viability based on the changes in nuclear morphology of the cells using nuclear stain Hoechst or DAPI [30]. Images of organoid nuclei were analyzed using the ImageJ Nuclear Irregularity Index (NII) plugin for key parameters that included cell area, radius ratio, area box, aspect, and roundness. Using the published spreadsheet template, the NII of each cell was calculated with the following formula: NII=Aspect−Area Box+Radius Ratio+Roundness. The area vs NII of vehicle-treated cells were plotted as a scatter plot using the template and considered as the normal cell nuclei. The same plots were generated for each condition, and the NII and area of treated cells were compared to the normal nuclei, and classified as one of the following NMA populations: Normal (N; similar area and NII), Mitotic (S; similar area, slightly higher NII), Irregular (I; similar area, high NII), Small Regular (SR; apoptotic, low area and NII), Senescent (LR; high area, low NII), Small Irregular (SI; low area, high NII), or Large Irregular (LI; high area, high NII). […] The percentage of cells in each NII classification category were calculated and plotted as a histogram using GraphPad Prism.

[6] = tested on: iPSC^ctrl organoids; experiment: as above; format: cell-based, human; conditions: 500 nM
Method: as §2

[7] = tested on: iPSC^USP48MV organoids; experiment: ACTH secretion ELISA of conditioned media; format: cell-based, human; conditions: 500 nM
Method: (§3) Concentration of secreted ACTH in conditioned media that was collected from organoid cultures was measured using the Human ACTH ELISA Kit (Novus Biologicals, NBP2-66401) according to the manufacturer's protocol. The enzyme-substrate reaction was measured spectrophotometrically (BioTek Gen5 Micro Plate Reader Version 3.11) at a wavelength of 450 nm and the ACTH concentration (pg/mL) was interpolated using a standard curve with a 4-parameter logistic regression analysis using GraphPad Prism (Version 9.2.0).

[8] = tested on: iPSC^ctrl organoids; experiment: ACTH secretion ELISA of conditioned media; format: cell-based, human; conditions: 500 nM
Method: as §3

[9] = tested on: FKBP5; experiment: GR modulation: GR target gene FKBP5 expression in PitNET organoids; format: cell-based, human
[10] = tested on: macroadenomas; conditions: patients with macroadenomas; relacorilant for three months; cited from earlier work
[11] = iPSC organoids (ctrl, USP48MI, USP48MV, USP8), 500 nM, vs vehicle
[12] = iPSC^ctrl organoids, drug alone (Mife 500 nM, GANT 5 uM, Keto 10 uM, Dexa 100 nM)

## CC#C[C@]1(O)CC[C@H]2[C@@H]3CCC4=CC(=O)CCC4=C3[C@@H](c3ccc(N(C)C)cc3)C[C@@]21C [Mifepristone]
[1]; [11]
  expression of SSTR2: significant induction
[1]; [12]
  differential expression of SSTR2: significantly induced
[2]; [11]
  expression of SSTR5: significant induction
[2]; [12]
  differential expression of SSTR5: significantly induced
[3]
  cell proliferation (EdU uptake): significant increase
[4]
  cell proliferation (EdU uptake): significant increase
[5]
  apoptotic cells by nuclear morphology (NII): not observed
[6]
  apoptotic cells by nuclear morphology (NII): not observed
[7]
  magnitude of ACTH secretion induced: significantly greater than the effect of relacorilant
[8]
  magnitude of ACTH secretion induced: significantly greater than the effect of relacorilant
[9]
  differential expression of FKBP5: significantly reduced
[10]
  tumor (macroadenoma) regression: have not been observed
